# Measured values published in patent publication US11952582B2, “Herbicide-resistance gene and application thereof in plant breeding” (priority 2017, dated 2024).
# Tested on: HPPD, VTE1 and VTE3 gene expression in Arabidopsis seedlings
# Test: qRT-PCR of HPPD and vitamin E biosynthesis genes in Arabidopsis after herbicide treatment
# Format: in vivo, Arabidopsis thaliana
# Conditions: 250 nM, 6 h
# Description: 2 week-old T3 generation seedlings of WT, OE At, OE Pa and OE M3 were used as materials to set up a treatment group and a control group, respectively, wherein the treatment group was continuously cultured in ½ MS liquid medium containing 250 nM mesotrione for 6 h. The total RNA of related materials was extracted using Super Fast Plant RNA Extraction Kit (Beijing Huayueyang Biological Technology Co., Ltd., China). The concentration of RNA samples was measured using NanoDrop ND1000 (Thermo Scientific, USA). RNA samples with an absorbance ratio (at wavelengths of 260/280 nm and 260/230 nm) of approximately 2.0 were selected. The total RNA (1,000 ng) was then used for synthesis of cDNA for reverse transcription using a cDNA synthesis kit (One-step Removal of Transcript gDNA and cDNA Synthesis Super Kit, TransGen).
# As for quantitative reverse transcription PCR analysis, 3.0 μL cDNA was used as a template in a 20 μL reaction system to detect the expression levels of HPPD as well as VTE1 and VTE3 genes which encode the key enzymes in the biosynthesis of vitamin E, and actin was used as an internal reference gene. Three technical repetitions were performed on the Bio-Rad CFX96 real-time system. REST software was used for statistical analysis.
structure (smiles),measurement,setting,value
CS(=O)(=O)c1ccc(C(=O)C2C(=O)CCCC2=O)c([N+](=O)[O-])c1 [mesotrione],"expression levels of HPPD, VTE1 and VTE3 compared with untreated seedlings","OE At, OE Pa and WT lines",inhibited to varying degrees
same,HPPD gene expression level compared with untreated seedlings,OE M3 line,basically not inhibited
same,gene expression levels of VTE1 and VTE3 compared with untreated seedlings,OE M3 line,up-regulated
